According to US4341784A, “Naphthyridine derivatives” (priority 1979, dated 1982):
Read-outs that look alike come from different tables or passages of the source.

Tests used:
[1] = test system: Streptococcus pyogenes 65-A; experiment: In vivo efficacy against systemic infections in mice (intraperitoneal infection); set-up: species or system male mice (ddY); conditions: 168 h, po, twice, about 5 minutes and 6 hours after intraperitoneal infection, observed 7 days
Method: (§1) Each of the solutions was orally administered to mice infected with each of test organisms under the conditions described below, and the medium effective doses (ED50) obtained are shown in Table II. Male mice (ddY) weighing about 20 g (2) Streptococcus pyogenes 65-A: Intraperitoneal infection with about 3×10^7 cells per mouse suspended in barin heart infusion broth. Twice, about 5 minutes and 6 hours after infection. |Streptococcus pyogenes 65-A |Escherichia coli P-5101 for 7 days | The numerals in the table show ED50 (mg/kg). ED50 values were | calculated in accordance with the BehrensKaerber method (Arch. Exp. Path. | Pharm., 162, 480 (1931)). | po: oral administration.

Escherichia coli P-5101 = experiment: In vitro antibacterial activity (MIC, agar dilution method); type: cell-based; conditions: P5101; Escherichia coli P-5101; agar dilution; read-out: minimum inhibitory concentration (MIC)
Method: (§2) The minimum inhibitory concentrations (MIC, μg/ml) of the following compounds in vitro were measured by the agar dilution method of [Chemotherapy, Vol. 22, No. 16, page 1126 (1974)].

[2] = test system: Streptococcus faecalis P-2473; experiment: as above; type: cell-based; conditions: Enterococcus faecalis, P2473; Streptococcus faecalis P-2473; agar dilution; read-out: minimum inhibitory concentration (MIC)
Method: as §2

Shigella flexneri 2a = experiment: as above; type: cell-based; conditions: read-out: minimum inhibitory concentration (MIC)
Method: as §2

[3] = test system: Pseudomonas aeruginosa Tsuchiijima; experiment: as above; type: cell-based; conditions: Pseudomonas aeruginosa Tsuchiijima; agar dilution; read-out: minimum inhibitory concentration (MIC)
Method: as §2

[4] = test system: Corynebacterium pyogenes C-21; experiment: as above; type: cell-based; conditions: C21; Corynebacterium pyogenes C-21; agar dilution; read-out: minimum inhibitory concentration (MIC)
Method: as §2

[5] = test system: Staphylococcus aureus Smith; experiment: as above; type: cell-based; conditions: Staphylococcus aureus Smith; agar dilution; read-out: minimum inhibitory concentration (MIC)
Method: as §2

[6] = test system: Enterobacter cloacae P-2540; experiment: as above; type: cell-based; conditions: P2540; Enterobacter cloacae P-2540; agar dilution; read-out: minimum inhibitory concentration (MIC)
Method: as §2

[7] = test system: Klebsiella pneumoniae No. 13; experiment: as above; type: cell-based; conditions: Klebsiella pneumoniae No. 13; agar dilution; read-out: minimum inhibitory concentration (MIC)
Method: as §2

[8] = test system: Shigella flexneri 4a P-330; experiment: as above; type: cell-based; conditions: 4AP330, read-out: minimum inhibitory concentration (MIC)
Method: as §2

[9] = test system: Staphylococcus aureus 209P JC-1; experiment: as above; type: cell-based; conditions: Staphylococcus aureus 209P JC-1; agar dilution; read-out: minimum inhibitory concentration (MIC)
Method: as §2

[10] = test system: Escherichia coli NIHJ JC-2; experiment: as above; type: cell-based
Method: as §2

[11] = test system: Salmonella enteritidis No. 1891; experiment: as above; type: cell-based; conditions: Salmonella enterica; Salmonella enteritidis No. 1891; agar dilution; read-out: minimum inhibitory concentration (MIC)
Method: as §2

[12] = test system: Staphylococcus aureus No. 80; experiment: as above; type: cell-based
Method: as §2

[13] = test system: Serratia marcescens IFO 3736; experiment: as above; type: cell-based; conditions: IFO3736; Serratia marcescens IFO 3736; agar dilution; read-out: minimum inhibitory concentration (MIC)
Method: as §2

[14] = test system: Salmonella typhimurium S-9; experiment: as above; type: cell-based; conditions: Salmonella enterica; Salmonella typhimurium S-9; agar dilution; read-out: minimum inhibitory concentration (MIC)
Method: as §2

[15] = test system: Pseudomonas aeruginosa No. 12; experiment: as above; type: cell-based; conditions: Pseudomonas aeruginosa No. 12; agar dilution; read-out: minimum inhibitory concentration (MIC)
Method: as §2

[16] = test system: Streptococcus pyogenes 65A; experiment: as above; type: cell-based; conditions: Streptococcus pyogenes 65A; agar dilution; read-out: minimum inhibitory concentration (MIC)
Method: as §2

[17] = test system: Staphylococcus aureus No. 50774; experiment: as above; type: cell-based; conditions: Staphylococcus aureus No. 50774; agar dilution; read-out: minimum inhibitory concentration (MIC)
Method: as §2

Escherichia coli P-140a = experiment: as above; type: cell-based; conditions: P140A; Escherichia coli P-140a; agar dilution; read-out: minimum inhibitory concentration (MIC)
Method: as §2

[18] = test system: Staphylococcus epidermidis No. 8; experiment: as above; type: cell-based; conditions: Staphylococcus epidermidis No. 8; agar dilution; read-out: minimum inhibitory concentration (MIC)
Method: as §2

Proteus mirabilis P-2381 = experiment: as above; type: cell-based; conditions: P2381; Proteus mirabilis P-2381; agar dilution; read-out: minimum inhibitory concentration (MIC)
Method: as §2

Proteus morganii Kono = experiment: as above; type: cell-based; conditions: Morganella morganii; Proteus morganii Kono; agar dilution; read-out: minimum inhibitory concentration (MIC)
Method: as §2

[19] = test system: Gram-positive and Gram-negative bacteria including Pseudomonas aeruginosa; experiment: In vitro antibacterial activity, overall; type: cell-based; conditions: for in vitro antibacterial activity compared with known compounds (in words): b258: Gram-negative bacteria, versus Compounds A, B, D and E, b33: versus compounds A and B; for antibacterial activity (in words): in vitro, Gram-positive and Gram-negative bacteria
Method: as §2

[20] = test system: Pseudomonas aeruginosa No. 12; experiment: In vivo efficacy against systemic infections in mice (intraperitoneal infection); set-up: species or system male mice (ddY); conditions: NO.12, 168 h, po, twice, about 5 minutes and 6 hours after intraperitoneal infection, observed 7 days
Method: as §1, with “(4) Pseudomonas aeruginosa No. 12:” for “(2) Streptococcus pyogenes 65-A:”, “5×10^3” for “3×10^7”, “trypto-soy broth with 4% mucin.” for “barin heart infusion broth.”, “infection.” for “infection. |Streptococcus pyogenes 65-A”, “days |Pseudomonas aeruginosa No. 12” for “days”

| Compound | ED50 [1] | MIC (Escherichia coli P-5101) | MIC [2] | MIC (Shigella flexneri 2a) | MIC [3] | MIC [4] | MIC [5] | MIC [6] | MIC [7] | MIC [8] | MIC [9] | MIC [11] | MIC [13] | MIC [14] | MIC [15] | MIC [16] | MIC [17] | MIC (Escherichia coli P-140a) | MIC [18] | MIC (Proteus mirabilis P-2381) | further results |
| --- | --- | --- | --- | --- | --- | --- | --- | --- | --- | --- | --- | --- | --- | --- | --- | --- | --- | --- | --- | --- | --- |
| CCn1cc(C(=O)O)c(=O)c2cc(F)c(N3CCC(N)C3)nc21.Cl (stereo not shown) [Compound 1, 7-(3-Amino-1-pyrrolidinyl)-1-ethyl-6-fluoro-1,4-dihydro-4-oxo-1,8-naphthyridine-3-carboxylic acid hydrochloride] | 21 mg/kg | 0.1 µg/mL | 3.13 µg/mL | 0.1 µg/mL | 0.78 µg/mL | 0.39 µg/mL | 0.39 µg/mL | < 0.05 µg/mL | 0.2 µg/mL | 0.1 µg/mL | 0.2 µg/mL | 0.1 µg/mL | 0.39 µg/mL | 0.1 µg/mL | 0.78 µg/mL | 1.56 µg/mL | 0.2 µg/mL | < 0.05 µg/mL | 0.2 µg/mL | 0.39 µg/mL | MIC ([10]; NIHJJC2, Escherichia coli NIHJ JC-2, agar dilution, read-out: minimum inhibitory concentration (MIC)): 0.2 µg/mL; MIC ([12]; Staphylococcus aureus, NO.80, read-out: minimum inhibitory concentration (MIC)): 0.39 µg/mL; MIC (Proteus morganii Kono): 0.2 µg/mL; in vitro antibacterial activity compared with known compounds (in words) [19]: far better in vitro antibacterial activity; antibacterial activity (in words) [19]: very high antibacterial activities; ED50 [20]: 3.7 mg/kg |
| CCn1cc(C(=O)O)c(=O)c2cc(F)c(N3CCC(NC)C3)nc21.Cl (stereo not shown) [Compound 2, 1-Ethyl-6-fluoro-1,4-dihydro-7-(3-methylamino-1-pyrrolidinyl)-4-oxo-1,8-naphthyridine-3-carboxylic acid hydrochloride] | 42 mg/kg | 0.2 µg/mL | 6.25 µg/mL | 0.2 µg/mL | 0.78 µg/mL | 1.56 µg/mL | 0.78 µg/mL | 0.39 µg/mL | 0.39 µg/mL | 0.1 µg/mL | 0.78 µg/mL | 0.1 µg/mL | 1.56 µg/mL | 0.2 µg/mL | 1.56 µg/mL | 3.13 µg/mL | 0.78 µg/mL | 0.1 µg/mL | 0.39 µg/mL | 1.56 µg/mL | MIC ([10]; Escherichia coli, NIHJJC2, read-out: minimum inhibitory concentration (MIC)): 0.2 µg/mL; MIC ([12]; Staphylococcus aureus No. 80, agar dilution, read-out: minimum inhibitory concentration (MIC)): 0.78 µg/mL; MIC (Proteus morganii Kono): 0.39 µg/mL; in vitro antibacterial activity compared with known compounds (in words) [19]: far better in vitro antibacterial activity; antibacterial activity (in words) [19]: very high antibacterial activities; ED50 [20]: 6.5 mg/kg |
